Common to all, as to format: cell-based
The test system of test [1] is HepG2 cell line (liver cancer). In words: MTT cell viability assay, HepG2 cell line (liver cancer). To be noted: Homo sapiens, 48 hours, read-out: half maximal inhibitory concentration (IC50), HepG2. The method, then:
(§1) Cell proliferation of A549 cell line (lung cancer), CT26 cell line (colon cancer), DU145 cell line (prostate cancer), HepG2 cell line (liver cancer), PC3 cell line (prostate cancer), MDA-MB-231 cell line (breast cancer) and MCF-7 cell line (breast cancer) was assessed by MTT cell viability assay.
(§2) Above cell lines were cultured in determined medium for 24 hours. Proliferative cells were washed with PBS solution, treated with trpsin-EDTA (1×), centrifuged at 1,200 rpm for 5 min, precipitated the cells and discarded supernatant. The cells were resuspended with 10 ml of fresh medium, and then loaded to 96-well plate. While the assay initiated, 0.01˜200 μg/ml of Antrodia camphorata extract was added in each well, and the plate was incubated for 48 hours, at 37° C., 5% CO2. Each wall was added with 2.5 mg/ml MTT reagent in the dark. After 4 hours of reaction, 100 μl lysis buffer were added to each wall to terminate the reaction. […] The experiment data was represented by means±SD. All data was statistically analyzed by paired-t test, and a P-value less than 0.05 was considered significant.
In general terms: Formazan colour is commonly taken as a measure of viable cells.

Test [2] relates to MDA-MB-231 cell line (breast cancer). In words: MTT cell viability assay, MDA-MB-231 cell line (breast cancer). To be noted: Homo sapiens; MDA-MB-231, MTT, 48 hours; read-out: half maximal inhibitory concentration (IC50), MDA-MB-231. The method, then:
as §1, §2

Test [3] has as its system PC3 cell line (prostate cancer). In words: MTT cell viability assay, PC3 cell line (prostate cancer). To be noted: Homo sapiens, PC-3, 48 hours, read-out: half maximal inhibitory concentration (IC50), PC3. The method, then: as §1, §2
For test [4], the system named is DU145 cell line (prostate cancer). In words: MTT cell viability assay, DU145 cell line (prostate cancer). The settings on record: Homo sapiens; DU-145, MTT, 48 hours; read-out: half maximal inhibitory concentration (IC50), DU-145. The method, then:
as §1, §2

Test [5] relates to CT26 cell line (colon cancer). In words: MTT cell viability assay, CT26 cell line (colon cancer). To be noted: Mus musculus, 48 hours, read-out: half maximal inhibitory concentration (IC50), CT26. The method, then:
as §1, §2

The test system of test [6] is MCF-7 cell line (breast cancer). Description: MTT cell viability assay, MCF-7 cell line (breast cancer). The settings on record: Homo sapiens, MCF7; MCF-7, MTT, 48 hours; read-out: half maximal inhibitory concentration (IC50), MCF-7. The method, then: as §1, §2
Test [7] relates to A549 cell line (lung cancer). In words: MTT cell viability assay, A549 cell line (lung cancer). The settings on record: Homo sapiens, 48 hours, read-out: half maximal inhibitory concentration (IC50), A549. How it is done: as §1, §2
A short description of test [8]: Solvent (DMSO) cytotoxicity, cell death. The settings on record: DMSO content of diluted drug; cell line not stated. How it is done: The symbols used in tables respectively represent: 0-25% cell viability: +/−; 25˜50% cell viability: +; 50˜75% cell viability: ++, 75˜100% cell viability: +++, >100% cell viability: ++++. […] In this experiment, when the drug concentration was diluted to […], DMSO concentration was 0.5%.

Structures are written as SMILES. ≈ marks a conversion by molar mass, not a printed value.

As to `COC1=C(OC)[C@H](O)[C@H](C/C=C(\C)CC/C=C(\C)C/C=C/C(C)(C)O)[C@@H](C)C1=O` [Antrocamol LT3, (4R,5R,6R)-4-hydroxy-5-[(2E,6E,9E)-11-hydroxy-3,7,11-trimethyldodeca-2,6,9-trienyl]-2,3-dimethoxy-6-methylcyclohex-2-enone], the IC50 in test [1] was 0.004 ± 0.001 µg/mL (≈ 0.00984 µM); in test [2] it was 1.01 ± 0.06 µg/mL (≈ 2.48 µM); in test [3] it was 0.009 ± 0.001 µg/mL (≈ 0.0221 µM); in test [4] it was 0.07 ± 0.001 µg/mL (≈ 0.172 µM); in test [5], 0.011 ± 0.001 µg/mL (≈ 0.0271 µM); in test [6], 0.1 ± 0.01 µg/mL (≈ 0.246 µM). The IC50 in test [7] amounted to 0.014 ± 0.002 µg/mL (≈ 0.0344 µM).
As for `C[S+](C)[O-]` [DMSO], in test [8], the “IC50 value of the solvent (50% cell death)” value is 2.34%.

Values taken from patent publication US9474775B2, “Compound, extract isolated from antrodia camphorate, and method using the same” (priority 2013, dated 2016).
